Measurements reported in US4022909A, “Method of inhibiting the growth of bacteria using quaternary ammonium compounds” (IMC Chemical Group, Inc., priority 1976, dated 1977).

Experiments:
Escherichia coli = experiment: streak plate test, Inhibition Endpoint, Escherichia coli; format: cell-based; conditions: Gram -, lower figure allows growth, higher figure inhibits growth
Staphylococcus aureus = experiment: streak plate test, Inhibition Endpoint, Staphylococcus aureus; format: cell-based; conditions: Gram +, lower figure allows growth, higher figure inhibits growth
Micrococcus flavus = experiment: streak plate test, Inhibition Endpoint, Micrococcus flavus; format: cell-based; conditions: Gram +, lower figure allows growth, higher figure inhibits growth
Gaffkya tetragena = experiment: streak plate test, Inhibition Endpoint, Gaffkya tetragena; format: cell-based; conditions: Gram +, lower figure allows growth, higher figure inhibits growth
[1] = tested on: Streptococcus hemolyticus; experiment: streak plate test, Inhibition Endpoint, Streptococcus hemolyticus; format: cell-based; conditions: Streptococcus pyogenes, Gram +, lower figure allows growth, higher figure inhibits growth
[2] = tested on: Pasteurella pseudotuberculosis; experiment: microbe, parasite or virus in culture; format: cell-based; conditions: Yersinia pseudotuberculosis, read-out: Inhibition Endpoint
[3] = acute oral toxicity in mice; conditions: mouse, in vivo, po
mice = experiment: acute oral toxicity in mice; conditions: oral administration, mice
Mycobacterium ranae = experiment: streak plate test, Inhibition Endpoint, Mycobacterium ranae; format: cell-based; conditions: Acid fast, lower figure allows growth, higher figure inhibits growth
Streptococcus fecalis = experiment: streak plate test, Inhibition Endpoint, Streptococcus fecalis; format: cell-based; conditions: Gram +, lower figure allows growth, higher figure inhibits growth
Shigella dysenteriae = experiment: streak plate test, Inhibition Endpoint, Shigella dysenteriae; format: cell-based; conditions: read-out: Inhibition Endpoint
Pseudomonas auriginosa = experiment: streak plate test, Inhibition Endpoint, Pseudomonas auriginosa; format: cell-based; conditions: Gram -, lower figure allows growth, higher figure inhibits growth
bacteria = experiment: antibacterial activity by the streak plate test (in words); format: cell-based
Protocol: (§1) The compound was tested for antibacterial and antifungal activity by the streak plate test, which is known in the art. The test substance was incorporated into several portions of an agar medium at several known concentrations and the mixtures were placed in Petri dishes. Then streaks of test organisms were applied to the surface of the medium, the dishes were incubated under growth-promoting conditions, and then examined for growth of organisms. The results are reported as the Inhibition End-Point Range, the lower figure signifying a concentration that allows growth and the higher figure being a concentration that inhibits growth.

fungi = experiment: antifungal activity by the streak plate test (in words); format: cell-based
Protocol: as §1

CCCCCCCCCCCCCC(=O)OCC(C)(C)[N+](C)(C)C.[I-] [Example 1, (2-myristoyloxy-1,1-dimethylethyl)-trimethylammonium iodide]
MIC (Escherichia coli): 100 to 500 µg/mL | MIC (Staphylococcus aureus): 1 to 5 µg/mL | MIC (Micrococcus flavus): 0.1 to 0.5 µg/mL | MIC (Gaffkya tetragena): 1 to 5 µg/mL | MIC [1]: 1 to 5 µg/mL | MIC [2]: 1 to 5 µg/mL | LD50 [3]: 1000 mg/kg | LD0 (mice): 600 mg/kg | LD100 (mice): 2000 mg/kg | MIC (Mycobacterium ranae): 1 to 5 µg/mL | MIC (Streptococcus fecalis): 1 to 5 µg/mL | MIC (Shigella dysenteriae): 5 to 10 µg/mL | MIC (Pseudomonas auriginosa): > 1000 µg/mL | antibacterial activity (bacteria): powerful antibacterial activity

CCCCCCCCCCCC(=O)OCC(C)(C)[N+](C)(C)C.[I-] [Example 2, (2-lauroyloxy-1,1-dimethylethyl)-trimethylammonium iodide]
MIC (Escherichia coli): 100 to 500 µg/mL | MIC (Staphylococcus aureus): 1 to 5 µg/mL | MIC [1]: 5 to 10 µg/mL | MIC [2]: 5 to 10 µg/mL | LD50 [3]: 900 mg/kg | LD0 (mice): 500 mg/kg | LD100 (mice): 1700 mg/kg | MIC (Mycobacterium ranae): 1 to 50 µg/mL | MIC (Streptococcus fecalis): 5 to 10 µg/mL | MIC (Shigella dysenteriae): 10 to 50 µg/mL | MIC (Pseudomonas auriginosa): 500 to 1000 µg/mL | activity against fungi (fungi): only slight activity against fungi

CCCCCCCCCCCCCCCC(=O)OCC(C)(C)[N+](C)(C)C.[I-] [Example 3, (2-palmitoyloxy-1,1-dimethylethyl)-trimethylammonium iodide]
MIC (Escherichia coli): > 1000 µg/mL | MIC (Staphylococcus aureus): 1 to 5 µg/mL | MIC [1]: 1 to 5 µg/mL | MIC [2]: 100 to 500 µg/mL | LD50 [3]: 1490 mg/kg | LD0 (mice): 800 mg/kg | LD100 (mice): 3200 mg/kg | MIC (Mycobacterium ranae): 50 to 100 µg/mL | MIC (Streptococcus fecalis): 1 to 5 µg/mL | MIC (Shigella dysenteriae): 50 to 100 µg/mL | MIC (Pseudomonas auriginosa): > 1000 µg/mL | activity against fungi (fungi): only slightly active against fungi

CCCCCCCC(=O)OCC(C)(C)[N+](C)(C)C.[I-] [Example 4, (2-octanoyloxy-1,1-dimethylethyl)trimethylammonium iodide]
MIC (Escherichia coli): 500 to 1000 µg/mL | MIC (Staphylococcus aureus): 100 to 500 µg/mL | MIC [1]: > 1000 µg/mL | MIC [2]: 100 to 500 µg/mL | LD50 [3]: 1160 mg/kg | LD0 (mice): 800 mg/kg | LD100 (mice): 1700 mg/kg | MIC (Mycobacterium ranae): 100 to 500 µg/mL | MIC (Streptococcus fecalis): > 1000 µg/mL | MIC (Shigella dysenteriae): > 1000 µg/mL | MIC (Pseudomonas auriginosa): > 1000 µg/mL
